Measured values published in patent publication US8435980B2 (AbbVie Inc., priority 2009, dated 2013).

These compounds were tested against T1, Cdc7 (BEV coexpressed huCDC7/DBF4) (Homo sapiens, UniProt O00311) (assay: Cdc7 enzyme inhibition assay ([33P]ATP, biotinylated peptide substrate, FlashPlate)). Conditions: Table 3; enzyme inhibition data (Ki).
T1 construct: made in house; host or cells: BEV (baculovirus expression vector) co-expression; insect cells are implied but no cell line is named
Assay type: biochemical
Protocol: Cdc7 (BEV coexpressed huCDC7/DBF4) is prepared internally. Cdc7 assays are conducted as follows with final concentrations as listed. […] Reactions are quenched after 1 hr by the addition of 90 μL stop buffer (50 mM EDTA, 2M NaCl). […] (Ki) for exemplary compounds.

T1 sequence (O00311 whole entry): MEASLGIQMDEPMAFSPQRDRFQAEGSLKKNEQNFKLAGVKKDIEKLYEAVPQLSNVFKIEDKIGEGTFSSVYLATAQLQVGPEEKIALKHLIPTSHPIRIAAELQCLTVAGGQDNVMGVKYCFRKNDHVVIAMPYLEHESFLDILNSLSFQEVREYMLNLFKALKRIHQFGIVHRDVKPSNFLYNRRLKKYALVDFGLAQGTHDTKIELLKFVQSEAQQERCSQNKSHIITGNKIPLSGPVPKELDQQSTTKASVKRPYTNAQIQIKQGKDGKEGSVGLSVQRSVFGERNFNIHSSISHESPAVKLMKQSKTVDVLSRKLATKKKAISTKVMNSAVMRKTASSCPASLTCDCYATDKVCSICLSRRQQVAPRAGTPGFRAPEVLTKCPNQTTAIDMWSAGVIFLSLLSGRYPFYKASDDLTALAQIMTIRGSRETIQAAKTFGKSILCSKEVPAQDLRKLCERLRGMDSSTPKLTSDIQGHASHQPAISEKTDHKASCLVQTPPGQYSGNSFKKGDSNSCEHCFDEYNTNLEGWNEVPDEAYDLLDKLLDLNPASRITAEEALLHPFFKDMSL
T1 sequence (Q9UBU7 whole entry partner): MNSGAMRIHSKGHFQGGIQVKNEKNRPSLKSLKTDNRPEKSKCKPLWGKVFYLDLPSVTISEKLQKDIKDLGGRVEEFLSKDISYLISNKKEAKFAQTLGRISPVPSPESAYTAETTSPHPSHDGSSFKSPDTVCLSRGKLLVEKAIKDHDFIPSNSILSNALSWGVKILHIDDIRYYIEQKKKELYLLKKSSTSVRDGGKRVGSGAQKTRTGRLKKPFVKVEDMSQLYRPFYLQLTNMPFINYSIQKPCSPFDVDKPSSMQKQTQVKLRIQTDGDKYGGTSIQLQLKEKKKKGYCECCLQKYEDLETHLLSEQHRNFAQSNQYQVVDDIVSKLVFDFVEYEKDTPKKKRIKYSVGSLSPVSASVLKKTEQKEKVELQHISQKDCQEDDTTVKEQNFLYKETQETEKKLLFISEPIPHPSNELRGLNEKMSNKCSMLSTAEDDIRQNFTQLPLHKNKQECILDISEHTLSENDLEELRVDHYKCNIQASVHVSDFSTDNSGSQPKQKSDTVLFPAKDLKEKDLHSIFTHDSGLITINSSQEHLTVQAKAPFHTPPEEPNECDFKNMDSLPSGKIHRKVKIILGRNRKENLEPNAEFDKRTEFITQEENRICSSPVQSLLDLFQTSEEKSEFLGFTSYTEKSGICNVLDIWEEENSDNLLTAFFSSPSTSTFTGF

Row | Ki [µM] | Compound
1 | < 0.01 | CN1CCC(C2CCC(N(C)c3cc(-c4c[nH]c5ncccc45)cc(Cl)n3)CC2)C1 (stereo not shown) [Example 380, 6-chloro-N-methyl-N-[4-(1-methylpyrrolidin-3-yl)cyclohexyl]-4-(1H-pyrrolo[2,3-b]pyridin-3-yl)pyridin-2-amine]
2 | < 0.01 | O=C(N[C@H]1CC[C@H](Nc2cc(-c3c[nH]c4ncccc34)cc(Cl)n2)CC1)C1CN(Cc2ccccc2)C1 [Example 381, 1-benzyl-N-(trans-4-{[6-chloro-4-(1H-pyrrolo[2,3-b]pyridin-3-yl)pyridin-2-yl]amino}cyclohexyl)azetidine-3-carboxamide]
3 | < 0.01 | COc1cc(Cl)ccc1C(=O)N[C@H]1CC[C@H](Nc2cc(-c3c[nH]c4ncccc34)cc(Cl)n2)CC1 [Example 382, 4-chloro-N-(trans-4-{[6-chloro-4-(1H-pyrrolo[2,3-b]pyridin-3-yl)pyridin-2-yl]amino}cyclohexyl)-2-methoxybenzamide]
4 | < 0.01 | O=C(N[C@H]1CC[C@H](Nc2cc(-c3c[nH]c4ncccc34)cc(Cl)n2)CC1)c1cccc(C(F)(F)F)c1 [Example 383, N-(trans-4-{[6-chloro-4-(1H-pyrrolo[2,3-b]pyridin-3-yl)pyridin-2-yl]amino}cyclohexyl)-3-(trifluoromethyl)benzamide]
5 | 0.01 to 0.1 | Clc1cnc2[nH]cc(-c3cc(Cl)nc(NC4CCCCC4)c3)c2c1 [Example 384, 6-chloro-4-(5-chloro-1H-pyrrolo[2,3-b]pyridin-3-yl)-N-cyclohexylpyridin-2-amine]
6 | < 0.01 | O=C(N[C@H]1CC[C@H](Nc2cc(-c3c[nH]c4ncccc34)cc(Cl)n2)CC1)c1cccc(Cl)c1 [Example 385, 3-chloro-N-(trans-4-{[6-chloro-4-(1H-pyrrolo[2,3-b]pyridin-3-yl)pyridin-2-yl]amino}cyclohexyl)benzamide]
7 | < 0.01 | Clc1cc(-c2c[nH]c3ncccc23)cc(NCCc2ccccn2)n1 [Example 387, 6-chloro-N-[2-(pyridin-2-yl)ethyl]-4-(1H-pyrrolo[2,3-b]pyridin-3-yl)pyridin-2-amine]
8 | < 0.01 | Clc1cc(-c2c[nH]c3ncccc23)cc(NCCc2ccccc2)n1 [Example 388, 6-chloro-N-(2-phenylethyl)-4-(1H-pyrrolo[2,3-b]pyridin-3-yl)pyridin-2-amine]
9 | 0.01 to 0.1 | CN1CCN(CCCNc2cc(-c3c[nH]c4ncccc34)cc(Cl)n2)CC1 [Example 389, 6-chloro-N-[3-(4-methylpiperazin-1-yl)propyl]-4-(1H-pyrrolo[2,3-b]pyridin-3-yl)pyridin-2-amine]
10 | < 0.01 | Clc1cc(-c2c[nH]c3ncccc23)cc(NCCOc2ccccc2)n1 [Example 390, 6-chloro-N-(2-phenoxyethyl)-4-(1H-pyrrolo[2,3-b]pyridin-3-yl)pyridin-2-amine]
11 | < 0.01 | CN(C)CCCNc1cc(-c2c[nH]c3ncccc23)cc(Cl)n1 [Example 391, N′-[6-chloro-4-(1H-pyrrolo[2,3-b]pyridin-3-yl)pyridin-2-yl]-N,N-dimethylpropane-1,3-diamine]
12 | < 0.01 | Clc1cc(-c2c[nH]c3ncccc23)cc(NC2CCN(Cc3ccccc3)C2)n1 (stereo not shown) [Example 392, N-(1-benzylpyrrolidin-3-yl)-6-chloro-4-(1H-pyrrolo[2,3-b]pyridin-3-yl)pyridin-2-amine]
13 | < 0.01 | O=C(NCCS(=O)(=O)N[C@H]1CC[C@H](Nc2cc(-c3c[nH]c4ncccc34)cc(Cl)n2)CC1)c1ccc(F)cc1F [Example 393, N-{2-[(trans-4-{[6-chloro-4-(1H-pyrrolo[2,3-b]pyridin-3-yl)pyridin-2-yl]amino}cyclohexyl)sulfamoyl]ethyl}-2,4-difluorobenzamide]

The remaining lines, values behind:

Row | Compound | Ki [µM]
14 | O=C1c2ccccc2C(=O)N1CCS(=O)(=O)N[C@H]1CC[C@H](Nc2cc(-c3c[nH]c4ncccc34)cc(Cl)n2)CC1 [Example 358, N-(trans-4-{[6-chloro-4-(1H-pyrrolo[2,3-b]pyridin-3-yl)pyridin-2-yl]amino}cyclohexyl)-2-(1,3-dioxo-1,3-dihydro-2H-isoindol-2-yl)ethanesulfonamide] | < 0.01
15 | Clc1cc(-c2c[nH]c3ncccc23)cc(NC2CCC(CC3CCC(NC4CCC4)CC3)CC2)n1 (stereo not shown) [Example 359, 6-chloro-N-(4-{[4-(cyclobutylamino)cyclohexyl]methyl}cyclohexyl)-4-(1H-pyrrolo[2,3-b]pyridin-3-yl)pyridin-2-amine] | < 0.01
16 | O=C(CN1CCCCC1)Nc1cc(-c2c[nH]c3ncccc23)cc(Cl)n1 [Example 360, N-[6-chloro-4-(1H-pyrrolo[2,3-b]pyridin-3-yl)pyridin-2-yl]-2-(piperidin-1-yl)acetamide] | < 0.01
17 | Clc1cc(-c2c[nH]c3ncccc23)cc(N[C@H]2CC[C@H](NC3CCN(C4CCC4)CC3)CC2)n1 [Example 361, trans-N-[6-chloro-4-(1H-pyrrolo[2,3-b]pyridin-3-yl)pyridin-2-yl]-N′-(1-cyclobutylpiperidin-4-yl)cyclohexane-1,4-diamine] | < 0.01
18 | CC(C)(C)OC(=O)N1CCC(C2CCC(Nc3cc(-c4c[nH]c5ncccc45)cc(Cl)n3)CC2)CC1 (stereo not shown) [Example 362, tert-butyl 4-(4-{[6-chloro-4-(1H-pyrrolo[2,3-b]pyridin-3-yl)pyridin-2-yl]amino}cyclohexyl)piperidine-1-carboxylate] | 0.01 to 0.1
19 | CC(C)(C)OC(=O)N1CC(C(=O)N[C@H]2CC[C@H](Nc3cc(-c4c[nH]c5ncccc45)cc(Cl)n3)CC2)C1 [Example 364, tert-butyl 3-[(trans-4-{[6-chloro-4-(1H-pyrrolo[2,3-b]pyridin-3-yl)pyridin-2-yl]amino}cyclohexyl)carbamoyl]azetidine-1-carboxylate] | < 0.01
20 | O=C(C1CC1)N1CCC(C2CCC(Nc3cc(-c4c[nH]c5ncccc45)cc(Cl)n3)CC2)CC1 (stereo not shown) [Example 366, [4-(4-{[6-chloro-4-(1H-pyrrolo[2,3-b]pyridin-3-yl)pyridin-2-yl]amino}cyclohexyl)piperidin-1-yl](cyclopropyl)methanone] | < 0.01
21 | O=C(N[C@H]1CC[C@H](Nc2cc(-c3c[nH]c4ncccc34)cc(Cl)n2)CC1)C1CCN(CCO)CC1 [Example 367, N-(trans-4-{[6-chloro-4-(1H-pyrrolo[2,3-b]pyridin-3-yl)pyridin-2-yl]amino}cyclohexyl)-1-(2-hydroxyethyl)piperidine-4-carboxamide] | < 0.01
22 | O=C(NC1CCC(CC2CCC(Nc3cc(-c4c[nH]c5ncccc45)cc(Cl)n3)CC2)CC1)C1CC1 (stereo not shown) [Example 368, N-{4-[(4-{[6-chloro-4-(1H-pyrrolo[2,3-b]pyridin-3-yl)pyridin-2-yl]amino}cyclohexyl)methyl]cyclohexyl} cyclopropanecarboxamide] | < 0.01
23 | CC(=O)N1CCC(NC2CCC(Nc3cc(-c4c[nH]c5ncccc45)cc(Cl)n3)CC2)CC1 (stereo not shown) [Example 369, 1-{4-[(4-{[6-chloro-4-(1H-pyrrolo[2,3-b]pyridin-3-yl)pyridin-2-yl]amino}cyclohexyl)amino]piperidin-1-yl}ethanone] | < 0.01
24 | CS(=O)(=O)N1CCC(C2CCC(N(c3cc(-c4c[nH]c5ncccc45)cc(Cl)n3)S(C)(=O)=O)CC2)CC1 (stereo not shown) [Example 370, N-[6-chloro-4-(1H-pyrrolo[2,3-b]pyridin-3-yl)pyridin-2-yl]-N-{4-[1-(methylsulfonyl)piperidin-4-yl]cyclohexyl}methanesulfonamide] | 0.01 to 0.1
25 | CN1CCCC(C2CCC(Nc3cc(-c4c[nH]c5ncccc45)cc(Cl)n3)CC2)C1 (stereo not shown) [Example 371, 6-chloro-N-[4-(1-methylpiperidin-3-yl)cyclohexyl]-4-(1H-pyrrolo[2,3-b]pyridin-3-yl)pyridin-2-amine] | < 0.01
26 | CN1CCCC(C2CCC(N(C)c3cc(-c4c[nH]c5ncccc45)cc(Cl)n3)CC2)C1 (stereo not shown) [Example 372, 6-chloro-N-methyl-N-[4-(1-methylpiperidin-3-yl)cyclohexyl]-4-(1H-pyrrolo[2,3-b]pyridin-3-yl)pyridin-2-amine] | < 0.01
27 | O=C(NCCS(=O)(=O)N[C@H]1CC[C@H](Nc2cc(-c3c[nH]c4ncccc34)cc(Cl)n2)CC1)C1CC1 [Example 373, N-{2-[(trans-4-{[6-chloro-4-(1H-pyrrolo[2,3-b]pyridin-3-yl)pyridin-2-yl]amino}cyclohexyl)sulfamoyl]ethyl} cyclopropanecarboxamide] | < 0.01
28 | OCCCNc1cc(-c2c[nH]c3ncccc23)cc(Cl)n1 [Example 374, 3-{[6-chloro-4-(1H-pyrrolo[2,3-b]pyridin-3-yl)pyridin-2-yl]amino}propan-1-ol] | < 0.01
29 | Clc1cc(-c2c[nH]c3ncccc23)cc(NCCCN2CCOCC2)n1 [Example 375, 6-chloro-N-[3-(morpholin-4-yl)propyl]-4-(1H-pyrrolo[2,3-b]pyridin-3-yl)pyridin-2-amine] | 0.01 to 0.1
30 | Clc1cc(-c2c[nH]c3ncccc23)cc(NCCCn2ccnc2)n1 [Example 376, 6-chloro-N-[3-(1H-imidazol-1-yl)propyl]-4-(1H-pyrrolo[2,3-b]pyridin-3-yl)pyridin-2-amine] | < 0.01
31 | OCCCCCNc1cc(-c2c[nH]c3ncccc23)cc(Cl)n1 [Example 377, 5-{[6-chloro-4-(1H-pyrrolo[2,3-b]pyridin-3-yl)pyridin-2-yl]amino}pentan-1-ol] | < 0.01
32 | Clc1cc(-c2c[nH]c3ncccc23)cc(NCCc2cccnc2)n1 [Example 378, 6-chloro-N-[2-(pyridin-3-yl)ethyl]-4-(1H-pyrrolo[2,3-b]pyridin-3-yl)pyridin-2-amine] | < 0.01
33 | NC1CCC(N2CCC(Nc3cc(-c4c[nH]c5ncccc45)cc(Cl)n3)CC2)CC1 (stereo not shown) [Example 379, N-[1-(4-aminocyclohexyl)piperidin-4-yl]-6-chloro-4-(1H-pyrrolo[2,3-b]pyridin-3-yl)pyridin-2-amine] | < 0.01
34 | COc1ccc(CNc2cc(-c3c[nH]c4ncccc34)cc(Cl)n2)cc1OC [Example 386] | 0.01 to 0.1
